From patent USRE42890E1, “Furazanobenzimidazoles” (Basilea Pharmaceutica AG, priority 2003, dated 2011)

Experiments:
Jurkat = assay: MTS proliferation assay, Jurkat; assay type: cell-based, human; details: 72 h incubation, read-out: MTS proliferation assay IC 50 Jurkat
Summary of the method: (§1)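 Human lines, EGFP-transfected or not, grow in RPMI-1640 plus 5% or 10% FCS and 2-mercaptoethanol. They receive test compound for 72 h at final concentrations of 10, 3, 1 and 0.3 μM, and MTS conversion is measured at 492 nm.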

MRC5 = assay: MTS proliferation assay, MRC5; assay type: cell-based; details: MRC5, 72 h incubation; read-out: MTS proliferation assay IC 50 MRC5
Summary of the method: (§2)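 Seed cells in complete RPMI-1640 medium and allow 24 h attachment. Add compounds to final 10 μM, 3 μM, 1 μM or 0.3 μM and incubate 72 h at 37° C. Add MTS, incubate 3 h more, then measure absorption at 492 nm.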

[1] = system: adherent cells or suspension cells; assay: Hoechst 33342 nuclear staining (fraction of apoptotic nuclei); assay type: cell-based; parameters: key: 0 relating to no activity; 1 relating to weak activity comprising less than 70% of the cells; score 2 relating to strong activity comprising more than 70% of the cells
Jily = assay: MTS proliferation assay, Jily; assay type: cell-based; details: 72 h incubation, read-out: MTS proliferation assay IC 50 Jily
Summary of the method: as §2

HeLa = assay: MTS proliferation assay, HeLa; assay type: cell-based, human; details: 72 h incubation, read-out: MTS proliferation assay IC 50 HeLa
Summary of the method: as §1

HT1080 = assay: MTS proliferation assay, HT1080; assay type: cell-based, human; details: HT1080, 72 h incubation; read-out: MTS proliferation assay IC 50 HT1080
Summary of the method: as §1

COCCOc1ccc(C(=O)Cn2c(-c3nonc3N)nc3ccccc32)cc1 [Example 77] was tested, and the IC50 (Jurkat) was 0.1 to 1 µM, the IC50 (MRC5) was 0.1 to 1 µM and the “Hoechst 33342 nuclear staining score” value ([1]; H460, conc 0.01 μm) was 0. The “Hoechst 33342 nuclear staining score” value ([1]; H460, conc 0.1 μm) was 0, the “Hoechst 33342 nuclear staining score” value ([1]; H460, conc 1 μm) was 2 (score 2 relating to strong activity comprising more than 70% of the cells) and the “Hoechst 33342 nuclear staining score” value ([1]; HeLa, conc 0.01 μm) was 0. For the same compound, the “Hoechst 33342 nuclear staining score” value ([1]; HeLa, conc 0.1 μm) was 0, the “Hoechst 33342 nuclear staining score” value ([1]; HeLa, conc 1 μm) was 2 (score 2 relating to strong activity comprising more than 70% of the cells) and the “Hoechst 33342 nuclear staining score” value ([1]; Jily, conc 0.01 μm) was 0. The “Hoechst 33342 nuclear staining score” value ([1]; Jily, conc 0.1 μm) was 0, the “Hoechst 33342 nuclear staining score” value ([1]; Jily, conc 1 μm) was 2 (score 2 relating to strong activity comprising more than 70% of the cells) and the “Hoechst 33342 nuclear staining score” value ([1]; Jurkat, conc 0.01 μm) was 0. The “Hoechst 33342 nuclear staining score” value ([1]; Jurkat, conc 0.1 μm) was 0, the “Hoechst 33342 nuclear staining score” value ([1]; Jurkat, conc 1 μm) was 2 (score 2 relating to strong activity comprising more than 70% of the cells) and the “Hoechst 33342 nuclear staining score” value ([1]; MRC5, conc 0.01 μm) was 0. The “Hoechst 33342 nuclear staining score” value ([1]; MRC5, conc 0.1 μm) was 0, the “Hoechst 33342 nuclear staining score” value ([1]; MRC5, conc 1 μm) was 1 (1 relating to weak activity comprising less than 70% of the cells) and the “Hoechst 33342 nuclear staining score” value ([1]; PBLs, conc 0.01 μm) was 0. The “Hoechst 33342 nuclear staining score” value ([1]; PBLs, conc 0.1 μm) was 0, the “Hoechst 33342 nuclear staining score” value ([1]; PBLs, conc 1 μm) was 0 and the IC50 (Jily) was 0.1 to 1 µM. For the same compound, the IC50 (HeLa) was 0.1 to 1 µM and the IC50 (HT1080) was 0.1 to 1 µM.

Cc1cc2nc(-c3nonc3N)n(CC(=O)c3ccccc3)c2cc1C [Example 108] was tested, and the IC50 (Jurkat) was 0.1 to 1 µM, the IC50 (MRC5) was 0.1 to 1 µM and the “Hoechst 33342 nuclear staining score” value ([1]; H460, conc 0.01 μm) was 0. For the same compound, the “Hoechst 33342 nuclear staining score” value ([1]; H460, conc 0.1 μm) was 0, the “Hoechst 33342 nuclear staining score” value ([1]; H460, conc 1 μm) was 1 (1 relating to weak activity comprising less than 70% of the cells) and the “Hoechst 33342 nuclear staining score” value ([1]; HeLa, conc 0.01 μm) was 0. For the same compound, the “Hoechst 33342 nuclear staining score” value ([1]; HeLa, conc 0.1 μm) was 0, the “Hoechst 33342 nuclear staining score” value ([1]; HeLa, conc 1 μm) was 0 and the “Hoechst 33342 nuclear staining score” value ([1]; Jily, conc 0.01 μm) was 0. The “Hoechst 33342 nuclear staining score” value ([1]; Jily, conc 0.1 μm) was 0, the “Hoechst 33342 nuclear staining score” value ([1]; Jily, conc 1 μm) was 2 (score 2 relating to strong activity comprising more than 70% of the cells) and the “Hoechst 33342 nuclear staining score” value ([1]; Jurkat, conc 0.01 μm) was 0. The “Hoechst 33342 nuclear staining score” value ([1]; Jurkat, conc 0.1 μm) was 0, the “Hoechst 33342 nuclear staining score” value ([1]; Jurkat, conc 1 μm) was 2 (score 2 relating to strong activity comprising more than 70% of the cells) and the “Hoechst 33342 nuclear staining score” value ([1]; MRC5, conc 0.01 μm) was 0. The “Hoechst 33342 nuclear staining score” value ([1]; MRC5, conc 0.1 μm) was 0, the “Hoechst 33342 nuclear staining score” value ([1]; MRC5, conc 1 μm) was 0 and the “Hoechst 33342 nuclear staining score” value ([1]; PBLs, conc 0.01 μm) was 0. For the same compound, the “Hoechst 33342 nuclear staining score” value ([1]; PBLs, conc 0.1 μm) was 0, the “Hoechst 33342 nuclear staining score” value ([1]; PBLs, conc 1 μm) was 0 and the IC50 (Jily) was 0.1 to 1 µM. For the same compound, the IC50 (HeLa) was 0.1 to 1 µM and the IC50 (HT1080) was 0.1 to 1 µM.
